These results are taken from US20240287070A1, “FUSED HETEROCYCLIC DERIVATIVES” (Janssen Sciences Ireland Unlimited Company, priority 2021, published 2024).

The subject of one data set is HepG2 or HepG2.117 cells. Kind of data set: Cytotoxicity, ATPlite Luminescence Assay. It is filed as cell-based, human. The conditions noted are these: 3-days incubation unless marked with *. An outline of the steps: (§1)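 Luminescent ATP quantitation served as the viability endpoint following a 3- or 4-day incubation with test compounds.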
In general terms: In ATP-based viability assays light output follows the ATP content of the culture.

In data set [1] the test system is HBV (HepG2.117 cell line, inducibly HBV producing). Kind of data set: Anti-HBV activity, intracellular HBV DNA by real-time PCR in HepG2.117 cell line. It is filed as cell-based, hepatitis B virus. Particulars: HepG2.117 cells, 3 days of treatment. An outline of the steps: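 Read-out is intracellular HBV DNA, measured by real-time PCR using HBV-specific primers and probe. Cells were stable, inducible HBV-producing HepG2.117 (Tet-off). Serially diluted compound was applied for 3 days after replication was induced.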
In general terms: Quantitative PCR measures a nucleic acid by following its amplification.

Data set [2] can be described thus: Human liver microsome stability. Particulars: 1 μM compound, NADPH 1 mM, 37° C., 0-60 min; for HLM Metabolism t1/2: pooled human liver microsomes 0.5 mg/mL; for half-life at 1 μM: human, pooled human liver microsomes, pH 7.4, pooled human liver microsomes 0.5 mg/mL, read-out: HLM Metabolism t1/2. The format is in vitro ADME. Summed up:
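Single incubations with human liver microsomes started with 1 mM NADPH; samples taken at 0, 5, 10, 20, 40 and 60 min, quenched in acetonitrile (1:3). Cassette LC-MS analysis with internal standard; t½ derived from slope of ln peak-area ratio versus time (k = −gradient).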
(Microsomes from liver hold many membrane-bound enzymes, among them those of drug oxidation.)

Data set [3] can be described thus: Cytotoxicity, ATPlite Luminescence Assay. It is filed as cell-based, human. Particulars: human, HepG2 or HepG2.117 cells, 3-days incubation unless marked with *. An outline of the steps: as §1
Where [4] appears, read: Hepatitis B virus, HepG2.117, 72 h.

Where only a bound is given, the exact number is not on record here.

Broadly, the CC50 is the concentration at which the toxic effect on the cells reaches its halfway point. A higher CC50 goes with better tolerance by the cells. What is called EC50 is the concentration needed to bring the measured effect to its halfway point. The compound `CC(c1ccc(C2(O)CC2)cc1)N1C[C@@H](C)n2nc3c(c2C1=O)CN(C(=O)c1ccc(Cl)c(C#N)c1)[C@H](C)C3` (single isomer, unassigned) [Compound 14B, 2-Chloro-5-((3R,7R)-9-((S*)-1-(4-(1-hydroxycyclopropyl)phenyl)ethyl)-3,7-dimethyl-10-oxo-1,2,3,4,7,8,9,10-octahydropyrido[4′,3′:3,4]pyrazolo[1,5-a]pyrazine-2-carbonyl)benzonitrile] came in with a CC50 in the data set with HepG2 or HepG2.117 cells greater than 50 µM. In addition, the half-maximal effective concentration (EC50) in data set [1] came out at 0.015 µM. For the same compound, in data set [2], the “HLM Metabolism t1/2” value is 1.17 h.

`CC(c1cnc(C(F)(F)F)cn1)N1C[C@@H](C)n2nc3c(c2C1=O)CN(C(=O)c1ccc(Cl)c(Cl)c1)[C@H](C)C3` (single isomer, unassigned) [Compound 7B, (3R,7R)-2-(3,4-dichlorobenzoyl)-3,7-dimethyl-9-((S*)-1-(5-(trifluoromethyl)pyrazin-2-yl)ethyl)-1,2,3,4,8,9-hexahydropyrido[4′,3′:3,4]pyrazolo[1,5-a]pyrazin-10(7H)-one] yielded a CC50 with HepG2 or HepG2.117 cells of 16.9 µM. This compound registered an EC50 in data set [1] of 0.048 µM. For the same compound, the “HLM Metabolism t1/2” value in data set [2] is greater than 3 h.

In turn, `CC(c1cnc(C2CC2)cn1)N1C[C@@H](C)n2nc3c(c2C1=O)CN(C(=O)c1ccc(Cl)c(Cl)c1)[C@H](C)C3` (single isomer, unassigned) [Compound 3B, (3R,7R)-9-((S*)-1-(5-cyclopropylpyrazin-2-yl)ethyl)-2-(3,4-dichlorobenzoyl)-3,7-dimethyl-1,2,3,4,8,9-hexahydropyrido[4′,3′:3,4]pyrazolo[1,5-a]pyrazin-10(7H)-one] gave a CC50 in the data set with HepG2 or HepG2.117 cells of 16.4 µM. The compound further came in with an EC50 in data set [1] of 0.023 µM. In data set [2], the “HLM Metabolism t1/2” value is 2.22 h.

In the data set on HepG2 or HepG2.117 cells, `CC(c1ccnc(Cl)c1)N1C[C@@H](C)n2nc3c(c2C1=O)CN(C(=O)c1ccc(Cl)c(Cl)c1)[C@H](C)C3` (single isomer, unassigned) [Compound 31B, (3R,7R)-9-((S*)-1-(2-chloropyridin-4-yl)ethyl)-2-(3,4-dichlorobenzoyl)-3,7-dimethyl-1,2,3,4,8,9-hexahydropyrido[4′,3′:3,4]pyrazolo[1,5-a]pyrazin-10(7H)-one] returned a CC50 of 22.7 µM. A half-maximal response in data set [1] (EC50) required 0.019 µM. Further, the “HLM Metabolism t1/2” value in data set [2] came out at 2.12 h.

`Cc1ncnn1-c1ccc(C(C)N2C[C@@H](C)n3nc4c(c3C2=O)CN(C(=O)c2ccc(Cl)c(Cl)c2)[C@H](C)C4)cn1` (relative stereo) [Compound 25A, (3R,7R)-2-(3,4-dichlorobenzoyl)-3,7-dimethyl-9-((R*)-1-(6-(5-methyl-11H-1,2,4-triazol-1-yl)pyridin-3-yl)ethyl)-1,2,3,4,8,9-hexahydropyrido[4′,3′:3,4]pyrazolo[1,5-a]pyrazin-10(7H)-one]: the CC50 in the data set on HepG2 or HepG2.117 cells is greater than 50 µM. For the same compound, the EC50 in data set [1] came to 0.23 µM. In addition, in data set [2], the “HLM Metabolism t1/2” value was greater than 3 h.

`CC(c1ccc(NS(C)(=O)=O)cn1)N1C[C@@H](C)n2nc3c(c2C1=O)CN(C(=O)c1ccc(Cl)c(C(F)(F)F)c1)[C@H](C)C3` (single isomer, unassigned) [Compound 33A, N-(6-((R*)-1-((3R,7R)-2-(4-chloro-3-(trifluoromethyl)benzoyl)-3,7-dimethyl-10-oxo-1,3,4,7,8,10-hexahydropyrido[4′,3′:3,4]pyrazolo[1,5-a]pyrazin-9(2H)-yl)ethyl)pyridin-3-yl)methanesulfonamide] gave a CC50 at 3 days in data set [3] greater than 50 µM. In data set [1] (setting [4]), this compound displayed an EC50 of 0.036 µM. Besides, the half-life at 1 μM in data set [2] is greater than 3 h.

In data set [3], `CC(c1ccc(S(N)(=O)=O)cc1)N1C[C@@H](C)n2nc3c(c2C1=O)CN(C(=O)c1ccc(Cl)c(Cl)c1)[C@H](C)C3` (single isomer, unassigned) [Compound 16A, 4-((R*)-1-((3R,7R)-2-(3,4-dichlorobenzoyl)-3,7-dimethyl-10-oxo-1,2,3,4,7,8-hexahydropyrido[4′,3′:3,4]pyrazolo[1,5-a]pyrazin-9(10H)-yl)ethyl)benzenesulfonamide] yielded a cytotoxic concentration (CC50) at 3 days greater than 50 µM. The EC50 in data set [1] (setting [4]) was 0.061 µM. Also, the half-life at 1 μM in data set [2] is greater than 3 h.

Consider `CC(c1cnn(C(C)C)c(=O)c1)N1C[C@@H](C)n2nc3c(c2C1=O)CN(C(=O)c1ccc(Cl)c(C(F)(F)F)c1)[C@H](C)C3` (single isomer, unassigned) [Compound 53A, (3R,7R)-2-(4-chloro-3-(trifluoromethyl)benzoyl)-9-((R*)-1-(1-isopropyl-6-oxo-1,6-dihydropyridazin-4-yl)ethyl)-3,7-dimethyl-1,2,3,4,8,9-hexahydropyrido[4′,3′:3,4]pyrazolo[1,5-a]pyrazin-10(7H)-one], for which, in data set [3], the CC50 at 3 days is greater than 50 µM. Besides, in data set [1], the EC50 amounted to 0.24 µM. In addition, the half-life at 1 μM in data set [2] was determined as 1.85 h.

Compound `CNS(=O)(=O)c1ccc(C(C)N2C[C@@H](C)n3nc4c(c3C2=O)CN(C(=O)c2ccc(Cl)c(Cl)c2)[C@H](C)C4)cc1` (single isomer, unassigned) [Compound 17A, 4-((R*)-1-((3R,7R)-2-(3,4-dichlorobenzoyl)-3,7-dimethyl-10-oxo-1,3,4,7,8,10-hexahydropyrido[4′,3′:3,4]pyrazolo[1,5-a]pyrazin-9(2H)-yl)ethyl)-N-methylbenzenesulfonamide] returned a CC50 at 3 days in data set [3] greater than 50 µM. In data set [1], this compound registered an EC50 of 0.077 µM. Further, the half-life at 1 μM in data set [2] is 2.9 h.

In turn, `C[C@@H]1Cc2nn3c(c2CN1C(=O)c1ccc(Cl)c(C#N)c1)C(=O)N([C@H](C)c1ccc(OC(F)F)cc1)C[C@@H]3C` (relative stereo) [Compound 1A, 2-Chloro-5-((3R,7S*)-9-((R*)-1-(4-(difluoromethoxy)phenyl)ethyl)-3,7-dimethyl-10-oxo-1,2,3,4,7,8,9,10-octahydropyrido[4′,3′:3,4]pyrazolo[1,5-a]pyrazine-2-carbonyl)benzonitrile] showed a CC50 at 3 days in data set [3] greater than 50 µM. In addition, the EC50 in data set [1] (setting [4]) is 0.21 µM. Besides, the half-life at 1 μM in data set [2] came out at 0.235 h.

In the case of `CC(c1cnc(N2CCOC[C@@H]2C)nc1)N1C[C@@H](C)n2nc3c(c2C1=O)CN(C(=O)c1ccc(Cl)c(C(F)(F)F)c1)[C@H](C)C3` (single isomer, unassigned) [Compound 38A, (3R,7R)-2-(4-chloro-3-(trifluoromethyl)benzoyl)-3,7-dimethyl-9-((R*)-1-(2-((S)-3-methylmorpholino)pyrimidin-5-yl)ethyl)-1,2,3,4,8,9-hexahydropyrido[4′,3′:3,4]pyrazolo[1,5-a]pyrazin-10(7H)-one], the CC50 at 3 days in data set [3] was 47 µM. In addition, the EC50 in data set [1] came out at 0.06 µM. The half-life at 1 μM in data set [2] worked out at 1.01 h.

Compound `C[C@@H]1Cc2nn3c(c2CN1C(=O)c1ccc(Cl)c(C#N)c1)C(=O)N([C@@H](C)c1ccc(OC(F)F)cc1)CC3` [Ref 2, reference compound] displayed a CC50 at 3 days in data set [3] greater than 50 µM. In addition, a half-maximal response in data set [1] (setting [4]) (EC50) required 0.03 µM. In data set [2], the half-life at 1 μM was found to be 0.63 h.

Regarding `Cc1ncc(C(C)N2C[C@@H](C)n3nc4c(c3C2=O)CN(C(=O)c2ccc(Cl)c(Cl)c2)[C@H](C)C4)cn1` (single isomer, unassigned) [Compound 4A, (3R,7R)-2-(3,4-dichlorobenzoyl)-3,7-dimethyl-9-((R*)-1-(2-methylpyrimidin-5-yl)ethyl)-1,2,3,4,8,9-hexahydropyrido[4′,3′:3,4]pyrazolo[1,5-a]pyrazin-10(7H)-one], the CC50 at 3 days in data set [3] was greater than 50 µM. In data set [1], this compound came in with an EC50 of 0.28 µM. Also, the half-life at 1 μM in data set [2] is greater than 3 h.

In the case of `CC(c1ccn(C(C)C)c(=O)c1)N1C[C@@H](C)n2nc3c(c2C1=O)CN(C(=O)c1ccc(Cl)c(C(F)(F)F)c1)[C@H](C)C3` (single isomer, unassigned) [Compound 47A, (3R,7R)-2-(4-chloro-3-(trifluoromethyl)benzoyl)-9-((R*)-1-(1-isopropyl-2-oxo-1,2-dihydropyridin-4-yl)ethyl)-3,7-dimethyl-1,2,3,4,8,9-hexahydropyrido[4′,3′:3,4]pyrazolo[1,5-a]pyrazin-10(7H)-one], in data set [3], the CC50 at 3 days is greater than 50 µM. This compound came in with a 50% effective concentration (EC50) in data set [1] of 0.068 µM. Further, the “HLM Metabolism t1/2” value in data set [2] was 0.888 h.

Take `C[C@@H]1Cc2nn3c(c2CN1C(=O)c1ccc(Cl)c(C(F)(F)F)c1)C(=O)N([C@@H](C)c1ccc([S@@](C)(=N)=O)cc1)C[C@H]3C` (relative stereo) [Compound 19D, (3R,7R)-2-(4-chloro-3-(trifluoromethyl)benzoyl)-3,7-dimethyl-9-((S*)-1-(4-((S*)—S-methylsulfonimidoyl)phenyl)ethyl)-1,2,3,4,8,9-hexahydropyrido[4′,3′:3,4]pyrazolo[1,5-a]pyrazin-10(7H)-one]: in data set [3], the 50% cytotoxic concentration (CC50) at 3 days is greater than 50 µM. The compound further displayed an EC50 in data set [1] (setting [4]) of 0.011 µM. Also, the half-life at 1 μM in data set [2] was greater than 3 h.

As for `CC(c1ccc(N2CCCS2(=O)=O)nc1)N1C[C@@H](C)n2nc3c(c2C1=O)CN(C(=O)c1ccc(Cl)c(C(F)(F)F)c1)[C@H](C)C3` (single isomer, unassigned) [Compound 28A, (3R,7R)-2-(4-chloro-3-(trifluoromethyl)benzoyl)-9-((R*)-1-(6-(1,1-dioxidoisothiazolidin-2-yl)pyridin-3-yl)ethyl)-3,7-dimethyl-1,2,3,4,8,9-hexahydropyrido[4′,3′: 3,4]pyrazolo[1,5-a]pyrazin-10(7H)-one], in data set [3], the CC50 at 3 days is greater than 50 µM. This compound also registered an EC50 in data set [1] (setting [4]) of 0.012 µM. Besides, the “HLM Metabolism t1/2” value in data set [2] turned out to be 0.835 h.
